This is an account of results in patent US12377102B2, “Compounds for the prevention and treatment of medical disorders and uses thereof” (GALECTIN SCIENCES, LLC, priority 2017, dated 2025).

The target of one experiment is T1, recombinant human Gal-3 (Homo sapiens, UniProt P17931).
T1 construct: shifts of whole molecule of Gal-3 (Gal-3 FL); made in house; host or cells: E. coli BL21 (DE3)
The experiment can be described thus: 1H-15N HSQC NMR shifts of 15N-labeled Gal-3 on compound addition. It counts as binding. The conditions noted are these: full Gal-3. The protocol: Heteronuclear ^15N NMR spectroscopy was used to evaluate the interaction of compounds described herein with galectin molecules, including but not limited to Gal-3, to assess the interaction residues on the Gal-3 molecule.
NMR experiments were carried out at 30° C. on Bruker 600 MHz, 700 MHz or 850 MHz spectrometers equipped with H/C/N triple-resonance probes and x/y/z triple-axis pulse field gradient units. […] Raw data were converted and processed by using NMRPipe and were analyzed by using NMRview.

In a further experiment the target is Gal-3 CRD (Homo sapiens, UniProt P17931). The experiment can be described thus: Fluorescence Polarization with fluorescein-labeled carbohydrate probe. Format: binding. The settings on record: FITC linked lactose derivative probe.
In experiment [1] the target is Gal-3 binding to Integrin αMβ2 (Homo sapiens, UniProt P17931). The experiment can be described thus: ELISA Gal-3 binding to integrin αMβ2. The text has this:
Illustrations of functional assays with Gal-3 binding pairing specific antibody with a Glycoprotein ligand, e.g. Gal-3 Binding-Protein (Gal-3 BP), Integrins, etc. (FIGS. 7A and 7B).
(§1) Activated ELISA plate is coated with αMβ2 integrin.

The target of experiment [2] is galectin 1 interaction with integrin αMβ2 (Homo sapiens, UniProt P09382). The experiment can be described thus: ELISA galectin 1 interaction with integrin αMβ2. It counts as binding. The settings on record: FIG. 8E.
The target of experiment [3] is galectin 9 interaction with integrin αMβ2 (Homo sapiens, UniProt O00182). The experiment can be described thus: ELISA galectin 9 interaction with integrin αMβ2. It counts as binding. The settings on record: FIG. 8E.
From the text: as §1

Experiment [4] addresses Gal-3 binding to IGF-R1 (gene IGF1R) (Homo sapiens, UniProt P17931). The experiment can be described thus: ELISA Gal-3 binding to Insulin Like Growth Factor 1 Receptor. The conditions noted are these: FIGS. 12G-1 to 12G-3. The protocol: Using the ELISA composition assay described herein, in which the compounds were incubated with Gal-3 and the binding of Gal-3 with IGF-Receptor was tested.

T1 sequence (P17931 whole entry): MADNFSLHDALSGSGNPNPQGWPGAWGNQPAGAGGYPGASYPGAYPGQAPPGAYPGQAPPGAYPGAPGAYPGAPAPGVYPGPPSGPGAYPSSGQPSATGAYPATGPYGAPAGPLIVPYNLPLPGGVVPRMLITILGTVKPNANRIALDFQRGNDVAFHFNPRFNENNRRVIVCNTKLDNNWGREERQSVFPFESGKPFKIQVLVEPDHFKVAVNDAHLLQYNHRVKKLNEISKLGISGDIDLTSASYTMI
Sequence of Gal-3 binding to Integrin αMβ2 (P17931 2-250 limits assumed): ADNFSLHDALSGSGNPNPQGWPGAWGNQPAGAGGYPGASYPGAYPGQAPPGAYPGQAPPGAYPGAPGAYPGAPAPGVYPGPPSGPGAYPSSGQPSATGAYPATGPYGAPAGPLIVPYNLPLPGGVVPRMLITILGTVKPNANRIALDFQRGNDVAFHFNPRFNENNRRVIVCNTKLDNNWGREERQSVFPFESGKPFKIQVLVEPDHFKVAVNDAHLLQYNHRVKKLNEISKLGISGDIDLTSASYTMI
Sequence of galectin 9 interaction with integrin αMβ2 (O00182 whole entry): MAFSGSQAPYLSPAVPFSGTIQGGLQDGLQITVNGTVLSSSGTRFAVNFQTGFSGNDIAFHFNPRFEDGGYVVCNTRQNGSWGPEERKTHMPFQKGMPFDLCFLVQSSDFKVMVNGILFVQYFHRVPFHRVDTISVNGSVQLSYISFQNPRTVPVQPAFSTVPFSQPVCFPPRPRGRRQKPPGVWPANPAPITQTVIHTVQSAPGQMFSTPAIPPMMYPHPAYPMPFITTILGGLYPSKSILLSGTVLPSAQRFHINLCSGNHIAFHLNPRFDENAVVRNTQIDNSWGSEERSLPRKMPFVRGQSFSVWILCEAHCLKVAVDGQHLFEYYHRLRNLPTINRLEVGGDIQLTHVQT
Sequence of Gal-3 CRD (P17931 whole entry): as the sequence (P17931 whole entry) above
Sequence of galectin 1 interaction with integrin αMβ2 (P09382 2-135 limits assumed): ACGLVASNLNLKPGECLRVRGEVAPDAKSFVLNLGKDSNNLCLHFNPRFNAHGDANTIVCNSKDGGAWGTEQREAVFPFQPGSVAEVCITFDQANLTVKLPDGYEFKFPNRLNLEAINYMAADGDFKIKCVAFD
Sequence of Gal-3 binding to IGF-R1 (gene IGF1R) (P17931 2-250 limits assumed): as the sequence (P17931 2-250 limits assumed) above

As to `Cc1ccc(COc2ccc(C=C3CCn4c3nc(=O)c3ccccc34)cc2)cc1` [AGS-0144, 3-({4-[(4-methylphenyl)methoxy]phenyl}methylidene)-1H,2H,3H,5H-pyrrolo[1,2-a]quinazolin-5-one], on recombinant human Gal-3, the “interaction with amino-acids located in the CRD site (HSQC NMR)” value is “have not directly interact with these amino-acids”.

For `OC[C@H]1O[C@@H](S[C@@H]2O[C@H](CO)[C@H](O)[C@H](n3cc(-c4cccc(F)c4)nn3)[C@H]2O)[C@H](O)[C@@H](n2cc(-c3cccc(F)c3)nn2)[C@H]1O` [TD-139], the “interaction with amino-acids located in the CRD site (HSQC NMR)” value on recombinant human Gal-3 was “create disturbances of amino-acid located in the CRD site”. At Gal-3 CRD, the “Fluorescent Polarization inhibition signal” value was “strong signal”. In addition, the “specificity for Gal-3 vs other galectins (1, 8, 9)” value in experiment [1] (ELISA with integrin αMβ2, FIGS. 8D and 8E) was “non-specific interaction”. Also, the “inhibition of Integrin αMβ2 interaction with Gal-3” value in experiment [1] (ELISA, FIGS. 8B, 8C, 12C) is on record as “inhibition”. In experiment [2], the “inhibition of galectin 1 interaction with integrin αMβ2” value was “inhibited”. Moreover, the “inhibition of galectin 9 interaction with integrin αMβ2” value in experiment [3] is recorded as “inhibited”. The “effect on Gal-3 binding to IGF-R1” value in experiment [4] is reported as “cause inhibition”.
